Results reported in PubChem BioAssay AID256 (DTP/NCI, 2004).
“And” between values parts separate entries of the source, which are not always exact repeats. Equal values may be shown once. Toxic doses and inconclusive results are not listed.

Test system: CD2F1 mice, L1210 leukemia ip, survival T/C
Assay: NCI In Vivo Anticancer Drug Screen. Data for tumor model L1210 Leukemia (intraperitoneal) in CD2F1 (CDF1) mice
Settings: higher = longer survival
Summary of the method: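 Compound-dosed mice with transplantable tumor versus matched vehicle controls; endpoint ratio T/C reported.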

[1] = endpoint: mean survival time, dose: 100.0 mg/kg/injection, schedule: Q01DX009 (ip), vehicle: saline with Tween-80
[2] = endpoint: mean survival time, dose: 200.0 mg/kg/injection, schedule: Q01DX009 (ip), vehicle: saline with Tween-80
[3] = endpoint: mean survival time, dose: 400.0 mg/kg/injection, schedule: Q01DX009 (ip), vehicle: saline with Tween-80
[4] = endpoint: mean survival time, dose: 100.0 mg/kg/injection, schedule: Q04DX003 (ip), vehicle: saline
[5] = endpoint: mean survival time, dose: 200.0 mg/kg/injection, schedule: Q04DX003 (ip), vehicle: saline
[6] = endpoint: mean survival time, dose: 400.0 mg/kg/injection, schedule: Q04DX003 (ip), vehicle: saline
[7] = endpoint: mean survival time, dose: 100.0 mg/kg/injection, schedule: Q04DX003 (ip), vehicle: saline with Tween-80
[8] = endpoint: mean survival time, dose: 200.0 mg/kg/injection, schedule: Q04DX003 (ip), vehicle: saline with Tween-80
[9] = endpoint: mean survival time, dose: 400.0 mg/kg/injection, schedule: Q04DX003 (ip), vehicle: saline with Tween-80

CC(=O)Nc1ccc(/C=N/NC(=O)COc2ccccc2)cc1
T/C [1]: 97 % of control
T/C [2]: 94 % of control
T/C [3]: 94 % of control

CN(C)C=NCCc1ccccc1
T/C (endpoint: mean survival time, dose: 50.0 mg/kg/injection, schedule: Q01DX001 (ip), vehicle: saline): 97 % of control

O=[N+]([O-])c1ccc(F)cc1
T/C (endpoint: mean survival time, dose: 10.0 mg/kg/injection, schedule: Q04DX003 (ip), vehicle: saline): 104 % of control
T/C (endpoint: mean survival time, dose: 20.0 mg/kg/injection, schedule: Q04DX003 (ip), vehicle: saline): 102 % of control
T/C (endpoint: mean survival time, dose: 40.0 mg/kg/injection, schedule: Q04DX003 (ip), vehicle: saline): 102 % of control

CN(C)c1ccc(C=C(Cl)Cl)cc1
T/C (endpoint: mean survival time, dose: 100.0 mg/kg/injection, schedule: Q04DX002 (ip), vehicle: other): 87 % of control
T/C (endpoint: mean survival time, dose: 200.0 mg/kg/injection, schedule: Q04DX002 (ip), vehicle: other): 91 % of control
T/C (endpoint: mean survival time, dose: 400.0 mg/kg/injection, schedule: Q04DX002 (ip), vehicle: other): 93 % of control

COc1ccccc1C(O)(C(=O)OCCSC)c1ccccc1OC
T/C [4]: 93 % of control
T/C [5]: 94 % of control
T/C [6]: 88 % of control

NS(=O)(=O)c1ccc(Cl)c2ccccc12
T/C (endpoint: mean survival time, dose: 100.0 mg/kg/injection, schedule: Q01DX001 (ip), vehicle: saline with Tween-80): 93 % of control
T/C (endpoint: mean survival time, dose: 200.0 mg/kg/injection, schedule: Q01DX001 (ip), vehicle: saline with Tween-80): 98 % of control

O=C(O)/C=C/C(=O)Nc1ccccc1Cl
T/C [1]: 96 % of control
T/C [7]: 94 % of control
T/C [2]: 96 % of control
T/C [8]: 105 % of control
T/C [9]: 101 % of control

O=C(c1ccccc1)c1ccc2c(c1)-c1ccccc1-2
T/C [1]: 94 % of control
T/C [7]: 100 % of control
T/C [2]: 94 % of control
T/C [8]: 93 % of control
T/C [3]: 93 % of control
T/C [9]: 95 % of control

Cc1c(N)c(=O)n(-c2ccccc2)n1C
T/C [4]: 97 % of control
T/C [5]: 103 % of control
T/C [6]: 101 % of control

C/[N+]([O-])=C/C1OC(n2ccc(=O)[nH]c2=O)C2OC(C)(C)OC12 (stereo not given)
T/C (endpoint: median survival time, dose: 21.38 mg/kg/injection, schedule: Q01DX005 (ip), vehicle: saline): 106 % of control
T/C (endpoint: median survival time, dose: 42.75 mg/kg/injection, schedule: Q01DX005 (ip), vehicle: saline): 100 % of control
T/C (endpoint: median survival time, dose: 85.5 mg/kg/injection, schedule: Q01DX005 (ip), vehicle: saline): 100 % of control
T/C (endpoint: median survival time, dose: 171.0 mg/kg/injection, schedule: Q01DX005 (ip), vehicle: saline): 107 % of control

NC(=Nc1ccc(Cl)cc1)/N=C(/N)N1CCN(/C(N)=N/C(N)=Nc2ccc(Cl)cc2)CC1
T/C (endpoint: mean survival time, dose: 50.0 mg/kg/injection, schedule: Q01DX009 (ip), vehicle: saline with Tween-80): 104 % of control
T/C [7]: 98 % of control
T/C [8]: 98 % of control

O=C[C@@H](CO)O[C@H](C=O)c1c[nH]c(=O)[nH]c1=O
T/C (endpoint: median survival time, dose: 2.5 mg/kg/injection, schedule: Q01DX009 (ip), vehicle: saline): 118 % of control
T/C (endpoint: median survival time, dose: 7.5 mg/kg/injection, schedule: Q04DX003 (ip), vehicle: saline): 102 % of control
T/C (endpoint: median survival time, dose: 12.5 mg/kg/injection, schedule: Q01DX009 (ip), vehicle: water): 124 % of control
T/C (endpoint: median survival time, dose: 15.0 mg/kg/injection, schedule: Q04DX003 (ip), vehicle: saline): 102 % of control
T/C (endpoint: median survival time, dose: 30.0 mg/kg/injection, schedule: Q04DX003 (ip), vehicle: saline): 114 % of control
T/C (endpoint: median survival time, dose: 40.0 mg/kg/injection, schedule: Q01DX009 (ip), vehicle: saline): 158 % of control
T/C (endpoint: median survival time, dose: 50.0 mg/kg/injection, schedule: Q01DX009 (ip), vehicle: saline): 158 % of control
T/C (endpoint: median survival time, dose: 54.0 mg/kg/injection, schedule: Q04DX003 (ip), vehicle: saline): 156 % of control
T/C (endpoint: median survival time, dose: 60.0 mg/kg/injection, schedule: Q04DX003 (ip), vehicle: saline): 119 % of control
T/C (endpoint: median survival time, dose: 66.7 mg/kg/injection, schedule: Q04DX003 (ip), vehicle: saline): 151 % of control
T/C (endpoint: median survival time, dose: 90.0 mg/kg/injection, schedule: Q04DX003 (ip), vehicle: saline): 178 % of control
T/C (endpoint: median survival time, dose: 100.0 mg/kg/injection, schedule: Q01DX009 (ip), vehicle: water): 89 % of control
T/C (endpoint: median survival time, dose: 100.5 mg/kg/injection, schedule: Q04DX003 (ip), vehicle: saline): 164 % of control
T/C (endpoint: median survival time, dose: 105.0 mg/kg/injection, schedule: Q04DX003 (ip), vehicle: saline): 229 % of control
T/C (endpoint: median survival time, dose: 120.0 mg/kg/injection, schedule: Q04DX003 (ip), vehicle: saline): 175 % of control and 184 % of control
T/C (endpoint: median survival time, dose: 135.0 mg/kg/injection, schedule: Q04DX003 (ip), vehicle: saline): 164 % of control
T/C (endpoint: median survival time, dose: 165.0 mg/kg/injection, schedule: Q04DX003 (ip), vehicle: saline): 625 % of control
T/C (endpoint: median survival time, dose: 180.0 mg/kg/injection, schedule: Q04DX003 (ip), vehicle: saline): 218 % of control and 228 % of control
T/C (endpoint: median survival time, dose: 224.9 mg/kg/injection, schedule: Q04DX003 (ip), vehicle: saline): 202 % of control

O=C(O)c1c(Cl)ccc(F)c1Cl
T/C (endpoint: mean survival time, dose: 100.0 mg/kg/injection, schedule: Q04DX002 (ip), vehicle: saline with Tween-80): 105 % of control
T/C (endpoint: mean survival time, dose: 200.0 mg/kg/injection, schedule: Q04DX002 (ip), vehicle: saline with Tween-80): 105 % of control
T/C (endpoint: mean survival time, dose: 400.0 mg/kg/injection, schedule: Q04DX002 (ip), vehicle: saline with Tween-80): 94 % of control

CC(Br)C(Br)CO (stereo not given)
T/C [4]: 104 % of control
T/C [5]: 96 % of control
T/C [6]: 106 % of control

O=C(OC1CCCCC1c1ccccc1)c1ccc([N+](=O)[O-])cc1 (stereo not given)
T/C [7]: 90 % of control
T/C [8]: 98 % of control
T/C [9]: 90 % of control

CC(=O)OC1COC(n2nnc(C#N)c2C#N)C(OC(C)=O)C1OC(C)=O (stereo not given)
T/C (endpoint: mean survival time, dose: 12.5 mg/kg/injection, schedule: Q01DX005 (ip), vehicle: distilled water + Tween-80): 103 % of control and 98 % of control
T/C (endpoint: mean survival time, dose: 25.0 mg/kg/injection, schedule: Q01DX005 (ip), vehicle: distilled water + Tween-80): 97 % of control and 103 % of control
T/C (endpoint: mean survival time, dose: 50.0 mg/kg/injection, schedule: Q01DX005 (ip), vehicle: distilled water + Tween-80): 98 % of control and 101 % of control
T/C (endpoint: mean survival time, dose: 100.0 mg/kg/injection, schedule: Q01DX005 (ip), vehicle: distilled water + Tween-80): 104 % of control and 106 % of control
T/C (endpoint: mean survival time, dose: 200.0 mg/kg/injection, schedule: Q01DX005 (ip), vehicle: distilled water + Tween-80): 95 % of control

N\C([S-])=N/N=C\C(=N/N=C(\N)[S-])C(O)C(O)C(O)CO.[Fe+2] (stereo not given)
T/C (endpoint: mean survival time, dose: 100.0 mg/kg/injection, schedule: Q01DX009 (ip), vehicle: saline sonified): 91 % of control
T/C (endpoint: mean survival time, dose: 200.0 mg/kg/injection, schedule: Q01DX009 (ip), vehicle: saline sonified): 92 % of control

CC(C)OC(=O)Nc1ccncc1
T/C (endpoint: mean survival time, dose: 25.0 mg/kg/injection, schedule: Q04DX002 (ip), vehicle: saline with Tween-80): 104 % of control

c1ccc(OCCOc2ccccc2)cc1
T/C (endpoint: mean survival time, dose: 50.0 mg/kg/injection, schedule: Q04DX003 (ip), vehicle: saline with Tween-80): 98 % of control
T/C [7]: 89 % of control
T/C [8]: 91 % of control

CNc1nc(NC)nc(NC)n1
T/C (endpoint: mean survival time, dose: 12.5 mg/kg/injection, schedule: Q01DX009 (ip), vehicle: Klucel (hydroxypropylcellulose) (HPC)): 95 % of control
T/C (endpoint: mean survival time, dose: 25.0 mg/kg/injection, schedule: Q01DX009 (ip), vehicle: Klucel (hydroxypropylcellulose) (HPC)): 97 % of control
T/C (endpoint: mean survival time, dose: 50.0 mg/kg/injection, schedule: Q01DX009 (ip), vehicle: Klucel (hydroxypropylcellulose) (HPC)): 97 % of control
T/C (endpoint: mean survival time, dose: 100.0 mg/kg/injection, schedule: Q01DX009 (ip), vehicle: Klucel (hydroxypropylcellulose) (HPC)): 100 % of control
T/C (endpoint: mean survival time, dose: 200.0 mg/kg/injection, schedule: Q01DX009 (ip), vehicle: Klucel (hydroxypropylcellulose) (HPC)): 103 % of control

CN(C)C=O
T/C (endpoint: mean survival time, dose: 25.0 mg/kg/injection, schedule: Q01DX009 (ip), vehicle: saline): 101 % of control
T/C (endpoint: mean survival time, dose: 50.0 mg/kg/injection, schedule: Q01DX009 (ip), vehicle: saline): 97 % of control
T/C (endpoint: mean survival time, dose: 100.0 mg/kg/injection, schedule: Q01DX009 (ip), vehicle: saline): 101 % of control
T/C (endpoint: mean survival time, dose: 100.0 mg/kg/injection, schedule: Q04DX002 (ip), vehicle: saline): 111 % of control
T/C (endpoint: mean survival time, dose: 200.0 mg/kg/injection, schedule: Q01DX009 (ip), vehicle: saline): 100 % of control
T/C (endpoint: mean survival time, dose: 200.0 mg/kg/injection, schedule: Q04DX002 (ip), vehicle: saline): 96 % of control
T/C (endpoint: mean survival time, dose: 400.0 mg/kg/injection, schedule: Q01DX009 (ip), vehicle: saline): 109 % of control
T/C (endpoint: mean survival time, dose: 400.0 mg/kg/injection, schedule: Q04DX002 (ip), vehicle: saline): 111 % of control
T/C (endpoint: mean survival time, dose: 800.0 mg/kg/injection, schedule: Q01DX009 (ip), vehicle: saline): 106 % of control
T/C (endpoint: mean survival time, dose: 1600.0 mg/kg/injection, schedule: Q01DX009 (ip), vehicle: saline): 105 % of control
